Results: PMC5642495, “Characterization of a novel androgen receptor (AR) coregulator RIPK1 and related chemicals that suppress AR-mediated prostate cancer growth via peptide and chemical screening” (Oncotarget, 2017)

B1: #3-18 peptide (No. 12, positive control; GAL4-DBD-3-18) (peptide)
peptide: NTNAFSRLFYPS
B2: RIP-p, short FxxFY-containing peptide of RIPK1 (No. 13) (peptide)
peptide: GIEEKFRPFYLSQLE

Columns and labels:
AR transactivation = assay: AR transcriptional reporter assay in PC-3 cells; format: cell-based, human; conditions: 10 nM DHT, 1 µM
Method: Figure 1 Associations between RIPK1 and AR (A) Co-IP of Flag-RIPK1 with Flag-AR in the 293T cell line. Extracts of 293T cells overexpressing 3xFlag-RIPK1 and 3xFlag-AR were treated with […]. IP was performed using anti-AR (C19) or anti-RIPK1 antibody or normal rabbit serum (negative control), followed by immunoblotting (IB) with antibodies against AR or RIPK1. (B) RIPK1 interacts with full-length AR and the N- and C-terminal regions of AR in GST pull-down assays. Mutation of the FxxFY motif to AxxAA in RIPK1 reduced interactions with AR. […] (C) Transfection of PC-3 prostate cancer cells with AR and RIPK1. PC-3 cells in 24-well plates were co-transfected with 300 ng MMTV-LUC reporter plasmid and 0.5 ng SV40-Renilla luciferase plasmid, together with 100 ng pCMV-Flag-AR and 100, 300 or 500 ng p3xFLAG- RIPK1. The total plasmid DNA content was made up to 1 µg with pCMV. After 16 h, ethanol or 10 nM DHT was added and cells incubated for an additional 16 h. DHT was used as the AR ligand while ARA70N served as the positive control. Relative LUC activity was determined using the dual luciferase system. (D) RIPK1 functional domain mapping in relation to AR transactivation. PC-3 cells were transfected with pCMV-Flag-AR and RIPK1 expression plasmid, P3xFlag-RIPK1 full-length, P3xFlag-RIPK1-(240-671) or P3xflag-RIPK1-(1-558) plasmid, and cultured overnight. Ethanol or 10 nM DHT was added and cells incubated for an additional 16 h. Relative LUC activity was determined using the dual luciferase system. (E) RIPK1 is expressed in benign prostatic hyperplasia tissue, displaying strong positivity (3+, > 90%) in the gland area but weak (1+, 50%) staining in the background. (F) Human prostate cancer tissues were immunostained for RIPK1. “T” indicates the tumor area (right side) and “Non-T” the non-tumor area (left side). RIPK1 expression was weak (1+, 80%) in the cancer area but remained strong (3+, 70%) in the peri-cancer area. The figures are representative of three benign prostatic gland hyperplasia and cancer tissues.
The PC-3 prostate cancer cell line was used for experiments. […]

AR = system: AR; parameters: method as in PMID 24742982; conditions: cited from earlier work
[1] = target: W741L-AR (bicalutamide-associated mutant androgen receptor, mammalian two-hybrid) (human); assay: two-hybrid; mammalian two-hybrid (MM2H) in PC-3 cells; Gal-4 peptide fusion with AR; CDX (bicalutamide) 10 µM; values relative to Gal-4 alone
Chain of W741L-AR (bicalutamide-associated mutant androgen receptor, mammalian two-hybrid) (human) (P10275 whole entry, stated change not applied, the tested form may be a part): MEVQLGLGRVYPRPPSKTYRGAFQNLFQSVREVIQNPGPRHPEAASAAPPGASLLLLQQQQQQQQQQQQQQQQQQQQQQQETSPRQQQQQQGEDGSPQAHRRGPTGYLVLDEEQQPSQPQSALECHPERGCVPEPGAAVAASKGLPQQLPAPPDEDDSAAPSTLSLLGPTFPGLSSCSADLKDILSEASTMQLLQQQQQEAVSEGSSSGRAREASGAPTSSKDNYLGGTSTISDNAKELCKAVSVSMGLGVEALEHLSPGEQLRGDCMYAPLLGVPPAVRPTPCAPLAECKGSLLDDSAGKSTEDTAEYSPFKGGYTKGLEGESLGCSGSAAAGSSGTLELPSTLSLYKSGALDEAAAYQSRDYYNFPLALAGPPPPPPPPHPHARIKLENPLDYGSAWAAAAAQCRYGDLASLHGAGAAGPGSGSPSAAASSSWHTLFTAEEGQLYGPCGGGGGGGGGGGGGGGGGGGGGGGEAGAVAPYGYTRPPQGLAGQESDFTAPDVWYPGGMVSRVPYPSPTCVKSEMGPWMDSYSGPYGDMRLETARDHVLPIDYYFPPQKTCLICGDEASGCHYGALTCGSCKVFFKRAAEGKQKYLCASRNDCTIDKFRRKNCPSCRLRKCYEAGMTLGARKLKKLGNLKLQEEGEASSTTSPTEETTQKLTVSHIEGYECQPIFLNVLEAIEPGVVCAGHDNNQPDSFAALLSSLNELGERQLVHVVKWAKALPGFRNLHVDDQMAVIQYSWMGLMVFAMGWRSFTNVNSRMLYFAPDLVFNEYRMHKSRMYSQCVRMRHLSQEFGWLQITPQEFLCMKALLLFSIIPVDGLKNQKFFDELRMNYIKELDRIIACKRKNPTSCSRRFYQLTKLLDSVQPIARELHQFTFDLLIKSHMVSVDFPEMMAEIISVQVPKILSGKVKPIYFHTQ

Molecule | relative reporter activity in the mammalian two-hybrid assay (Gal-4 alone = 1) [1] | also measured
CNC(=O)c1ccc(N2C(=S)N(c3ccc(C#N)c(C(F)(F)F)c3)C(=O)C2(C)C)cc1F [enzalutamide, reference compound] | – | suppression of AR transactivation (AR transactivation): suppressed AR transactivation
Nc1cc(N2CCCCC2)nc(N)[n+]1[O-] [Minoxidil] | – | suppression of AR related function (AR): suppress AR related function
B1 | 128 | –
B2 | 554 | –
